A short description of this data set: pH-dependent solubility of Compound A. The class given is physicochemical. The following applies: particularly between pH 1-4.

As to `COC(=O)N[C@H](C(=O)N1CCC[C@H]1c1ncc(-c2cc(F)c3c(c2)O[C@@H](c2cnc(C4CC4)s2)n2c-3cc3cc(-c4cnc([C@@H]5CCCN5C(=O)[C@@H](NC(=O)OC)C(C)C)[nH]4)ccc32)[nH]1)C(C)C` [Compound A, dimethyl ((2S,2′S)-((2S,2′S)-2,2′-(5,5′-((S)-6-(2-cyclopropylthiazol-5-yl)-1-fluoro-6H-benzo[5,6][1,3]oxazino[3,4-a]indole-3,10-diyl)bis(1H-imidazole-5,2-diyl))bis(pyrrolidine-2,1-diyl))bis(3-methyl-1-oxobutane-2,1-diyl))dicarbamate], the solubility profile result is recorded as “sharp pH-dependent solubility profile”.

The values above are taken from patent publication US20250009751A1, “FORMULATIONS OF ANTIVIRAL COMPOUNDS” (Merck Sharp & Dohme LLC, priority 2018, published 2025).
